Source: PMC6895203, “Conformational pathway provides unique sensitivity to a synaptic mGluR” (Nature Communications, 2019)
Where “and” joins values, the source holds several entries; their conditions need not be identical. Identical values can stand only once.

What was measured:
[1] = molecular target: T1, SNAP-mGluR7/SNAP-mGluR7 homodimer (mGluR7/7) (Rattus norvegicus, UniProt P35400); test: Live-cell ensemble FRET of SNAP-mGluR7/7 homodimer in HEK293T cells; format: cell-based; design: HA (N); made in house; host or cells: HEK293T
Protocol: After labeling, cells were mounted on an upright, scanning confocal microscope (Zeiss LSM 780) and imaged with a 20X objective. […] Clusters of cells were analyzed together and FRET was calculated as FRET = (IA)/(ID + IA), in which ID is the fluorescence donor intensity and IA is the fluorescence acceptor intensity. […] Fitting of dose–response curves was performed using Prism (Graphpad). […] Drugs were delivered with a gravity-driven perfusion system.

[2] = molecular target: T2, CLIP-mGluR3/SNAP-mGluR7 heterodimer (mGluR3/7) (Rattus norvegicus, UniProt P31422+P35400); test: smFRET on CLIP-mGluR3/SNAP-mGluR7 heterodimers; format: biochemical; details: for smFRET histogram value: 10uM Glu
T2 construct: Flag (N); HA (N); made in house; host or cells: HEK293T
Protocol: Samples were prepared in the same manner as for mGluR2/7 heterodimers and imaged in smFRET.
(§1) (100 ms time resolution).

mGluR7(K319C) = molecular target: T3, mGluR7(K319C) (Rattus norvegicus, UniProt P35400, K319C); format: cell-based; details: vs wild-type mGluR7
T3 construct: expressed in transfected cells; host or cells: HEK293 / HEK293T
Description: (§2) Illumination was applied to the entire field of view using either a Polychrome V monochromator (TILL Photonics) through a 20× objective, or a Lambda DG4 high-speed wavelength switcher (Sutter Instruments) with 380 nm and 500 nm filters through a 40× objective. pClamp software was used for both data acquisition and control of illumination.

mGluR5/mGluR5(YADA) = details: cited from earlier work
[3] = molecular target: SNAP-mGluR2/SNAP-mGluR2 (mGluR2/2) (Rattus norvegicus, UniProt P31421); test: Whole-cell patch clamp of GIRK1 current, mGluR2/2 homodimer; details: mGluR2/2+GIRK; for titration values, single replicates 1-3: individual replicates; for titration values, AVG (normalized response): Supplemental Figure 1a
[4] = molecular target: T4, CLIP-mGluR2/SNAP-mGluR2(YADA) dimer (Rattus norvegicus, UniProt P31421, D295A/Y216A); test: smFRET on CLIP-mGluR2/SNAP-mGluR2(YADA) dimers; format: biochemical; details: for mGluR2/2(YADA) Histogram area: Figure 4c
T4 construct: Flag (N); HA (N); made in house; host or cells: HEK293T
Description: To examine this, we tested the behavior of a heterodimer that co-assembles a wild-type mGluR2 with a binding site mutant version of mGluR2, mGluR2 (Y216A and D295A; known as the YADA mutant). […] We co-expressed CLIP-mGluR2 and SNAP-mGluR2(YADA) and labeled with the SNAP-selective acceptor dye BG-Alexa-647 and the CLIP-selective donor dye BC-DY-547. […] These findings indicate that closure of a single wild-type mGluR2 subunit is much more efficient in activating the receptor when partnered in the dimer with an mGluR7 than with another mGluR2.
as §1

SNAP-mGluR2(F756D) = molecular target: T5, SNAP-mGluR2(F756D) (Rattus norvegicus, UniProt P31421, F756D); test: Whole-cell patch clamp of GIRK1 current, SNAP-mGluR2(F756D) expressed alone; format: cell-based; details: SNAP-mGluR2-F756D alone; 1 mM Glu; single cells
T5 construct: HA (N); expressed in transfected cells; host or cells: HEK293 / HEK293T
Description: We explored this further by examining trans-activation, whereby binding of ligand to one subunit activates G-protein interaction in the partner subunit[46],[47]. To specifically activate only the mGluR2 subunit of the mGluR2/7 heterodimer, we selectively attached a photoswitched tethered ligand to mGluR2.
as §2

[5] = molecular target: T1, SNAP-mGluR7/SNAP-mGluR7 homodimer (mGluR7/7); test: smFRET on isolated immune-purified SNAP-mGluR7/7 dimers; details: read-out: EC50 of low FRET peak concentration-response (apparent affinity); smFRET, isolated receptor

T4 sequence (P31421 19-872, stated change not applied): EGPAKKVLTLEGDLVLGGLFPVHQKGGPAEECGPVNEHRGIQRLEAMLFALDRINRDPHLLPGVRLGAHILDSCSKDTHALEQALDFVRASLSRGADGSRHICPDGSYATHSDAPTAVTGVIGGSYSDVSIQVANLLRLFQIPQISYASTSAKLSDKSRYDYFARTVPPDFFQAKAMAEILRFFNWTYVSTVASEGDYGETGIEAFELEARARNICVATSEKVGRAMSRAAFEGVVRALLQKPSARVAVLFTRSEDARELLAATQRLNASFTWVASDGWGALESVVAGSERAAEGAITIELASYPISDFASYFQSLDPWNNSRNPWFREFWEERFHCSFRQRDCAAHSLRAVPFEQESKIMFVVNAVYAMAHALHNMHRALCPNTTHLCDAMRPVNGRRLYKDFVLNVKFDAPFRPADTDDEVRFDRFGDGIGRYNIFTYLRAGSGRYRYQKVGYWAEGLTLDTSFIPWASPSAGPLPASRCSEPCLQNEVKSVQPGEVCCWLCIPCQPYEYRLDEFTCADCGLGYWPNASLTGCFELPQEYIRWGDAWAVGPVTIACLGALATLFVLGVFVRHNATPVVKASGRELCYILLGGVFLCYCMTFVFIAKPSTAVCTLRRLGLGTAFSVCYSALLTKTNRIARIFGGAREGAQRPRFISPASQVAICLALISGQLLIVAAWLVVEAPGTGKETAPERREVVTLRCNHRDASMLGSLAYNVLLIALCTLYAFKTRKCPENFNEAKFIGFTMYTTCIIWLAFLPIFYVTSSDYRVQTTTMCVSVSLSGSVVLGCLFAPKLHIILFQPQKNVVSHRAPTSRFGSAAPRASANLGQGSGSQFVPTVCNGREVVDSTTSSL
T4 sequence (P31421 19-872 Y216A/D295A): as the sequence (P31421 19-872, stated change not applied) above, with Y198A, D277A counted along it
Sequence of SNAP-mGluR2/SNAP-mGluR2 (mGluR2/2) (P31421 19-872): as the sequence (P31421 19-872, stated change not applied) above
T1 sequence (P35400 35-915): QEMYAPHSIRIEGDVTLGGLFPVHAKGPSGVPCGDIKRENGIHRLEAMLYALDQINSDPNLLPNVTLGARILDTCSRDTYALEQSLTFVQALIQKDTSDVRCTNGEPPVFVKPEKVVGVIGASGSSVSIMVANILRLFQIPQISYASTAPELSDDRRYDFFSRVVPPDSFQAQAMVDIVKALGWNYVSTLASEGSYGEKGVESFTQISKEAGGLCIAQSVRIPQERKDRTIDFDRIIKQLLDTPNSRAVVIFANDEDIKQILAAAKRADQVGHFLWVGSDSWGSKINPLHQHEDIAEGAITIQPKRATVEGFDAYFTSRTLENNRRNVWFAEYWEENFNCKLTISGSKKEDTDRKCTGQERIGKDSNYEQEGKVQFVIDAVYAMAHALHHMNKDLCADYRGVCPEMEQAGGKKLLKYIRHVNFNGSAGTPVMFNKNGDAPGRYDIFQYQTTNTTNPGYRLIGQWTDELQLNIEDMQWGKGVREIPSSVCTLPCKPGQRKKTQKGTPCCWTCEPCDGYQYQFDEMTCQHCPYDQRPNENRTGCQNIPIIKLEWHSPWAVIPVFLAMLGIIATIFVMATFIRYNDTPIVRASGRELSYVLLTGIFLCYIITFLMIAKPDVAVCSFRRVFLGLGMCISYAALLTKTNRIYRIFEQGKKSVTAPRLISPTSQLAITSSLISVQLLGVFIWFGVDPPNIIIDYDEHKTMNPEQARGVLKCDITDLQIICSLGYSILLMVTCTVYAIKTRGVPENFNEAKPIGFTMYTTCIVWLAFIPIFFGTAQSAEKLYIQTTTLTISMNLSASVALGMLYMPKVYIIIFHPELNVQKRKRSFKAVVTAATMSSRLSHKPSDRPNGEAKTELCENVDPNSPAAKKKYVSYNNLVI
T2 sequence (P31422 23-879): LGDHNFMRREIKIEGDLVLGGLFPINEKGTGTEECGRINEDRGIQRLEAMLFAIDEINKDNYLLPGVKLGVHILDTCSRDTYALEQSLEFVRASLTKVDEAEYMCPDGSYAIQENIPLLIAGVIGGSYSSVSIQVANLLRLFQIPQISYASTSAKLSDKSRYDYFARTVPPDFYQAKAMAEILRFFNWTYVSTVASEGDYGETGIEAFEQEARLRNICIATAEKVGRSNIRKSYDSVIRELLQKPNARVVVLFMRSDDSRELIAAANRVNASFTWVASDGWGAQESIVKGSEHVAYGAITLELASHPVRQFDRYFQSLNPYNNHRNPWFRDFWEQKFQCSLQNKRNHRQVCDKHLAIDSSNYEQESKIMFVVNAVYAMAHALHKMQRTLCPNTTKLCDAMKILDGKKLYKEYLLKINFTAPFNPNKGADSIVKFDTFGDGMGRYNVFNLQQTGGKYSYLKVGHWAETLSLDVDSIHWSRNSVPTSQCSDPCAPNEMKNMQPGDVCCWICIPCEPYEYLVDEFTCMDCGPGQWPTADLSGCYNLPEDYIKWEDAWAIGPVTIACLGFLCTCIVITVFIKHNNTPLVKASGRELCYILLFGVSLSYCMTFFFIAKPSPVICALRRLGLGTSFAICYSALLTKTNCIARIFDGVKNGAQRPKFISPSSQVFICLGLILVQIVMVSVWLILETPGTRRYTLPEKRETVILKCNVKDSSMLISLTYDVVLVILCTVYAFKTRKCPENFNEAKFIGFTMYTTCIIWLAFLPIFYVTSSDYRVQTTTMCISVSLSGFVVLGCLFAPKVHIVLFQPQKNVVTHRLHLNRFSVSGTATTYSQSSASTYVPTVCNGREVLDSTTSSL
T2 sequence (P35400 35-915): as the sequence (P35400 35-915) above
T3 sequence (P35400 35-915 K319C): as the sequence (P35400 35-915) above, with K285C counted along it
T5 sequence (P31421 19-872 F756D): as the sequence (P31421 19-872, stated change not applied) above, with F738D counted along it

Q: With `N[C@@H](CCC(=O)O)C(=O)O` [glutamate] as the compound, how does the FRET decrease ([1]; 10 mM glutamate, live HEK293T cells) read?
A: barely measurable FRET decrease

Q: And the “fractional change in FRET (Figure 1c), Average” value ([1]; 10 mM glutamate, live cells)?
A: 0.002

Q: What about the “glutamate concentration required for a measurable response” value ([1]; live-cell ensemble FRET) of the same compound?
A: 10 mM

Q: And the FRET change ([1]; up to 1 mM glutamate, live HEK293T cells)?
A: no detectable FRET change

Q: What about the smFRET histogram value ([2]; FRET bin 0) of the same compound?
A: 5.12E-04

Q: And the smFRET histogram value ([2]; FRET bin 0.02)?
A: 0.00118

Q: What about the smFRET histogram value ([2]; FRET bin 0.04) of the same compound?
A: 0.00527

Q: What about the smFRET histogram value ([2]; FRET bin 0.06) of the same compound?
A: 0.01241

Q: What about the smFRET histogram value ([2]; FRET bin 0.08) of the same compound?
A: 0.03308

Q: And the smFRET histogram value ([2]; FRET bin 0.1)?
A: 0.05942

Q: What about the smFRET histogram value ([2]; FRET bin 0.12) of the same compound?
A: 0.08729

Q: What about the smFRET histogram value ([2]; FRET bin 0.14) of the same compound?
A: 0.111

Q: And the smFRET histogram value ([2]; FRET bin 0.16)?
A: 0.1262

Q: And the smFRET histogram value ([2]; FRET bin 0.18)?
A: 0.1233

Q: What about the smFRET histogram value ([2]; FRET bin 0.2) of the same compound?
A: 0.1027

Q: And the smFRET histogram value ([2]; FRET bin 0.22)?
A: 0.08729

Q: What about the smFRET histogram value ([2]; FRET bin 0.24) of the same compound?
A: 0.06369

Q: And the smFRET histogram value ([2]; FRET bin 0.26)?
A: 0.04632

Q: And the smFRET histogram value ([2]; FRET bin 0.28)?
A: 0.03089

Q: What about the smFRET histogram value ([2]; FRET bin 0.3) of the same compound?
A: 0.01963

Q: And the smFRET histogram value ([2]; FRET bin 0.32)?
A: 0.01469

Q: What about the smFRET histogram value ([2]; FRET bin 0.34) of the same compound?
A: 0.01371

Q: What about the smFRET histogram value ([2]; FRET bin 0.36) of the same compound?
A: 0.01107

Q: And the smFRET histogram value ([2]; FRET bin 0.38)?
A: 0.01037

Q: What about the smFRET histogram value ([2]; FRET bin 0.4) of the same compound?
A: 0.00851

Q: What about the smFRET histogram value ([2]; FRET bin 0.42) of the same compound?
A: 0.00558

Q: And the smFRET histogram value ([2]; FRET bin 0.44)?
A: 0.00425

Q: And the smFRET histogram value ([2]; FRET bin 0.46)?
A: 0.00239

Q: And the smFRET histogram value ([2]; FRET bin 0.48)?
A: 0.00285

Q: And the smFRET histogram value ([2]; FRET bin 0.5)?
A: 0.00309

Q: What about the smFRET histogram value ([2]; FRET bin 0.52) of the same compound?
A: 0.00461

Q: What about the smFRET histogram value ([2]; FRET bin 0.54) of the same compound?
A: 0.00369

Q: And the smFRET histogram value ([2]; FRET bin 0.56)?
A: 0.00265

Q: And the smFRET histogram value ([2]; FRET bin 0.58)?
A: 0.00122

Q: And the smFRET histogram value ([2]; FRET bin 0.6)?
A: 7.52E-04

Q: What about the smFRET histogram value ([2]; FRET bin 0.62) of the same compound?
A: 8.08E-05

Q: And the smFRET histogram value ([2]; FRET bin 0.64)?
A: 4.04E-05

Q: And the smFRET histogram value ([2]; FRET bin 0.66)?
A: 1.92E-05

Q: And the smFRET histogram value ([2]; FRET bin 0.68)?
A: 1.92E-05

Q: What about the smFRET histogram value ([2]; FRET bin 0.7) of the same compound?
A: 6.75E-05

Q: And the smFRET histogram value ([2]; FRET bin 0.72)?
A: 4.04E-05

Q: And the smFRET histogram value ([2]; FRET bin 0.74)?
A: 7.95E-06

Q: What about the smFRET histogram value ([2]; FRET bin 0.76) of the same compound?
A: 1.62E-04

Q: What about the smFRET histogram value ([2]; FRET bin 0.78) of the same compound?
A: 4.04E-05

Q: And the smFRET histogram value ([2]; FRET bin 0.8)?
A: 0

Q: And the smFRET histogram value ([2]; FRET bin 0.82)?
A: 0

Q: What about the smFRET histogram value ([2]; FRET bin 0.84) of the same compound?
A: 0

Q: And the smFRET histogram value ([2]; FRET bin 0.86)?
A: 0

Q: What about the smFRET histogram value ([2]; FRET bin 0.88) of the same compound?
A: 0

Q: And the smFRET histogram value ([2]; FRET bin 0.9)?
A: 0

Q: What about the smFRET histogram value ([2]; FRET bin 0.92) of the same compound?
A: 0

Q: And the smFRET histogram value ([2]; FRET bin 0.94)?
A: 0

Q: What about the smFRET histogram value ([2]; FRET bin 0.96) of the same compound?
A: 0

Q: And the smFRET histogram value ([2]; FRET bin 0.98)?
A: 0

Q: And the smFRET histogram value ([2]; FRET bin 1)?
A: 0

Q: And the active state occupancy ([2]; 10 μM glutamate)?
A: ~ 95%

Q: And the “effect of K319C mutation on apparent affinity for glutamate (GIRK current)” value (mGluR7(K319C))?
A: did not alter the apparent affinity

Q: What about the “first low glutamate concentration component, share of maximal activation” value (mGluR5/mGluR5(YADA)) of the same compound?
A: ~ 20%

Q: And the “titration values, single replicates 1-3” value ([3]; Glu 1e-6, listed as Glu)?
A: 0.1214 and 0.05844 and 0.0437

Q: And the “titration values, AVG (normalized response)” value ([3]; Glu 1e-5)?
A: 0.4456

Q: And the “titration values, single replicates 1-3” value ([3]; Glu 1e-5, listed as Glu)?
A: 0.4624 and 0.4291 and 0.4452

Q: And the “titration values, AVG (normalized response)” value ([3]; Glu 0.0001)?
A: 0.9358

Q: What about the “titration values, single replicates 1-3” value ([3]; Glu 0.0001, listed as Glu) of the same compound?
A: 0.9459 and 0.9335 and 0.9281

Q: And the “titration values, AVG (normalized response)” value ([3]; Glu 0.001)?
A: 1.022

Q: And the “titration values, single replicates 1-3” value ([3]; Glu 0.001, listed as Glu)?
A: 1.05 and 1.012 and 1.0027

Q: What about the “titration values, AVG (normalized response)” value ([3]; Glu 0.01 (normalisation point)) of the same compound?
A: 1

Q: What about the “titration values, single replicates 1-3” value ([3]; Glu 0.01 (normalisation point)) of the same compound?
A: 1

Q: And the “mGluR2/2(YADA) Histogram area” value ([4]; Glu 1e-6)?
A: 0.0005

Q: What about the “mGluR2/2(YADA) Histogram area” value ([4]; Glu 3e-6) of the same compound?
A: 0.0013

Q: What about the “mGluR2/2(YADA) Histogram area” value ([4]; Glu 1e-5) of the same compound?
A: 0.00167

Q: What about the “mGluR2/2(YADA) Histogram area” value ([4]; Glu 3e-5) of the same compound?
A: 0.00171

Q: What about the “mGluR2/2(YADA) Histogram area” value ([4]; Glu 0.0001) of the same compound?
A: 0.00339

Q: And the “mGluR2/2(YADA) Histogram area” value ([4]; Glu 0.0003)?
A: 0.00443

Q: And the “mGluR2/2(YADA) Histogram area” value ([4]; Glu 0.001)?
A: 0.00578

Q: And the “mGluR2/2(YADA) Histogram area” value ([4]; Glu 0.01)?
A: 0.00605

Q: What about the “mGluR2/2(YADA) Histogram area” value ([4]; Glu 0.1) of the same compound?
A: 0.00616

Q: What about the “maximal occupancy of the low FRET activated conformation” value ([4]; high glutamate) of the same compound?
A: ~ 30%

Q: And the “Current, 1 mM Glu” value (SNAP-mGluR2(F756D))?
A: 0

Q: What about the EC50 [5] of the same compound?
A: 38.3 mM and 38 mM
